Columns and labels:
[1] = test system: Staphylococcus aureus FDA209P; assay: Antimicrobial spectrum, agar-dilution method; format: cell-based
[2] = test system: rats; assay: Acute toxicity, oral, rats; conditions: 500 mg/kg administered to rats orally (65-700 times the effective dosage)
[3] = Titration (in water); format: physicochemical
[4] = test system: E. coli K-12 ML1630; assay: Antimicrobial spectrum, agar-dilution method; format: cell-based; conditions: E. coli K-12 ML1630, agar-dilution
[5] = test system: E. coli NIHJ STf; assay: Antimicrobial spectrum, agar-dilution method; format: cell-based
[6] = test system: Sarcina lutea ATCC 9341; assay: Antimicrobial spectrum, agar-dilution method; format: cell-based; conditions: Sarcina lutea ATCC 9341, agar-dilution
[7] = test system: E. coli CF17; assay: Antimicrobial spectrum, agar-dilution method; format: cell-based
[8] = test system: Proteus vulgaris OX19 ATCC6898; assay: Antimicrobial spectrum, agar-dilution method; format: cell-based
[9] = test system: Salmonella paratyphi B; conditions: agar-dilution
[10] = test system: Bordetella bronchiseptica Aichi 202; assay: Antimicrobial spectrum, agar-dilution method; format: cell-based; conditions: Bordetella bronchiseptica Aichi 202, agar-dilution
[11] = test system: Pseudomonas aeruginosa P2; assay: Antimicrobial spectrum, agar-dilution method; format: cell-based
[12] = test system: Pseudomonas aeruginosa IFO12689; assay: Antimicrobial spectrum, agar-dilution method; format: cell-based
[13] = test system: Mycobacterium smegmatis ATCC607; assay: Antimicrobial spectrum, agar-dilution method; format: cell-based
[14] = test system: Serratia marcescens IFO12648; assay: Antimicrobial spectrum, agar-dilution method; format: cell-based
[15] = test system: Pseudomonas aeruginosa A3; assay: Antimicrobial spectrum, agar-dilution method; format: cell-based
[16] = test system: Klebsiella pneumoniae PCI602; assay: Antimicrobial spectrum, agar-dilution method; format: cell-based
[17] = test system: E. coli NIHJ; assay: Antimicrobial spectrum, agar-dilution method; format: cell-based
[18] = test system: Salmonella typhimurium IFO12529; assay: Antimicrobial spectrum, agar-dilution method; format: cell-based
[19] = test system: E. coli CF41; assay: Antimicrobial spectrum, agar-dilution method; format: cell-based
[20] = test system: Staphylococcus aureus Smith; assay: Antimicrobial spectrum, agar-dilution method; format: cell-based
[21] = test system: Bacillus subtilis PCI 219; assay: Antimicrobial spectrum, agar-dilution method; format: cell-based; conditions: Bacillus subtilis PCI 219, agar-dilution
[22] = test system: Staphylococcus aureus MS9261; assay: Antimicrobial spectrum, agar-dilution method; format: cell-based
[23] = test system: Staphylococcus aureus MS3937; assay: Antimicrobial spectrum, agar-dilution method; format: cell-based
[24] = test system: hyperglycemia induced by cooked rice starch; assay: Inhibition of hyperglycemia induced by cooked rice starch, rats; format: in vivo; conditions: p.o., dose causing after 20 minutes a 20 percent decrease of hyperglycemia, 2 g/kg cooked rice starch
Description: (§1) **ED20 is defined as the dose causing after 20 minutes a 20 percent
(§2) decrease of hyperglycemia induced by oral administration of 2 g/kg body
(§3) weight cooked rice starch.

[25] = test system: Citrobacter; assay: Antimicrobial spectrum, agar-dilution method; format: cell-based
[26] = test system: hyperglycemia induced by cooked rice starch; assay: Inhibition of hyperglycemia induced by cooked rice starch, mice; format: in vivo; conditions: p.o., dose causing after 20 minutes a 20 percent decrease of hyperglycemia, 2 g/kg cooked rice starch
Description: as §1, §2, §3

[27] = test system: Shigella flexneri; assay: Antimicrobial spectrum, agar-dilution method; format: cell-based
[28] = test system: Proteus rettgeri; assay: Antimicrobial spectrum, agar-dilution method; format: cell-based
[29] = target: T1, porcine pancreatic α-amylase (Sus scrofa, UniProt P00690); assay: Porcine pancreatic α-amylase inhibitory activity (Bernfeld assay); format: biochemical; conditions: IU = amount giving 50% inhibition of 2 units porcine pancreatic α-amylase, pH 6.9, 37° C.
T1 sequence (P00690 16-511): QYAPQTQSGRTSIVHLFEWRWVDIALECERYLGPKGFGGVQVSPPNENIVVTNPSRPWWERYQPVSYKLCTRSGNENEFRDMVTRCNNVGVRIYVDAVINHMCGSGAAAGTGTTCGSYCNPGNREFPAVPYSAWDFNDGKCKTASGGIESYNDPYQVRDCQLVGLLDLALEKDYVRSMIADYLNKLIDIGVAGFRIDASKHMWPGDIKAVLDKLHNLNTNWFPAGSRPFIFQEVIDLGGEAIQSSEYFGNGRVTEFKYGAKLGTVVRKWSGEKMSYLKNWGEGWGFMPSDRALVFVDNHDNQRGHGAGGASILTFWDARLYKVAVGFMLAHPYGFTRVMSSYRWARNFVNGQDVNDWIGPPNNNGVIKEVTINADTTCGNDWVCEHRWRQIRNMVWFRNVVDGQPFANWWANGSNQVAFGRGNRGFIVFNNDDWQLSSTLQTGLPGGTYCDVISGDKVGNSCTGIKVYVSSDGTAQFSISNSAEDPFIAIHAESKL
Description: 2 units* of porcine pancreatic α-amylase in 0.1 ml of 6.4 mM ammonium sulfate solution are added to 0.6 ml of 20 mM phosphate buffer (pH 6.9) containing 10 mM sodium chloride and different amounts of Trestatin. The mixture, after equilibration at 37° C. for 5 min. followed by the addition of 0.5 ml of 4% soluble starch solution, is incubated for 5 min. at 37° C. The reaction is terminated by the addition of 2 ml of dinitrosalicylic acid reagent prepared according to the method of P. Bernfeld. The mixture is heated on a boiling water bath for 5 min. and then diluted with 10 ml of water. Absorbance (A1) of the resulting colored solution is measured at 540 nm, and the inhibition of α-amylase activity can be calculated from the following equation: [formula] A0; absorbance without enzyme A2; absorbance without Trestatin
*1 unit of the α-amylase is the amount of enzyme which catalyzes under the above conditions without Trestatin the formation of reducing sugars equivalent to 1 μmol of maltose.
Each of said inhibitory activities was determined by the method mentioned above.

[30] = test system: E. coli NIHJ SMf; assay: Antimicrobial spectrum, agar-dilution method; format: cell-based
[31] = Solubility in solvents; format: physicochemical
Text: (h) Solubility in solvents:

[32] = test system: Candida albicans Yu1200; assay: Antimicrobial spectrum, agar-dilution method; format: cell-based
[33] = test system: hyperglycemia following an oral load of sucrose; assay: Hyperglycemia following an oral load of sucrose; format: in vivo; conditions: dose/kg 30.0 mg; 20 min. after 3.2 g sucrose/kg
Description: (§4) [Plasma Glucose and insulin 20 min. after carbohydrate ± Trestatin (1.
g wheat starch/kg or 3.2 g sucrose/kg)]

[34] = test system: hyperglycemia (hyperinsulinemia) following an oral load of native starch; assay: Hyperglycemia (hyperinsulinemia) following an oral load of native starch; format: in vivo; conditions: 20 min. after wheat starch
Description: as §4
g wheat starch/kg or 3.2 g sucrose/kg)]

Structure (SMILES): C[C@H]1O[C@H](O[C@@H]2[C@H](O)[C@@H](O)[C@@H](O[C@@H]3[C@H](O)[C@@H](O)[C@@H](O[C@@H]4[C@H](O)[C@H](O)[C@@H](O[C@H]5O[C@H](CO)[C@H](O)[C@H](O)[C@H]5O)O[C@@H]4CO)O[C@@H]3CO)O[C@H]2CO)[C@@H](O)[C@@H](O)[C@@H]1N[C@@H]1C=C(CO)[C@@H](O)[C@@H](O)[C@@H]1O (stereo in doubt) [Trestatin B]
- Antimicrobial spectrum [1]: > 100 µg/mL
- Acute toxicity [2]: not observed
- pKa' [3]: 5.0
- Antimicrobial spectrum [4]: > 100 µg/mL
- Antimicrobial spectrum [5]: > 100 µg/mL
- Antimicrobial spectrum [6]: > 100 µg/mL
- Antimicrobial spectrum [7]: > 100 µg/mL
- Antimicrobial spectrum [8]: > 100 µg/mL
- Antimicrobial spectrum [9]: > 100 µg/mL
- Antimicrobial spectrum [10]: > 100 µg/mL
- Antimicrobial spectrum [11]: > 100 µg/mL
- Antimicrobial spectrum [12]: > 100 µg/mL
- Antimicrobial spectrum [13]: > 100 µg/mL
- Antimicrobial spectrum [14]: > 100 µg/mL
- Antimicrobial spectrum [15]: > 100 µg/mL
- Antimicrobial spectrum [16]: > 100 µg/mL
- Antimicrobial spectrum [17]: > 100 µg/mL
- Antimicrobial spectrum [18]: > 100 µg/mL
- Antimicrobial spectrum [19]: > 100 µg/mL
- Antimicrobial spectrum [20]: > 100 µg/mL
- Antimicrobial spectrum [21]: > 100 µg/mL
- Antimicrobial spectrum [22]: > 100 µg/mL
- Antimicrobial spectrum [23]: > 100 µg/mL
- ED20, inhibition of hyperglycemia induced by cooked rice starch [24]: 7.7 mg/kg
- Antimicrobial spectrum [25]: > 100 µg/mL
- ED20, inhibition of hyperglycemia induced by cooked rice starch [26]: 3.2 mg/kg
- Antimicrobial spectrum [27]: > 100 µg/mL
- Antimicrobial spectrum [28]: > 100 µg/mL
- Inhibitory activities [29]: 1.5 × 10^6 IU/g
- Antimicrobial spectrum [30]: > 100 µg/mL
- Solubility in acetone [31]: slightly soluble
- Solubility in chloroform [31]: insoluble
- Solubility in dimethylsulfoxide [31]: soluble
- Solubility in ethanol [31]: slightly soluble
- Solubility in ethyl acetate [31]: insoluble
- Solubility in water [31]: easily soluble
- Antimicrobial spectrum [32]: > 100 µg/mL

Structure (SMILES): C[C@H]1O[C@H](O[C@@H]2[C@H](O)[C@H](O)[C@@H](O[C@@H]3[C@H](O)[C@@H](O)[C@@H](O[C@@H]4[C@H](O)[C@H](O)[C@@H](O[C@H]5O[C@@H](CO)[C@H](O)[C@H](O)[C@H]5O)O[C@@H]4CO)O[C@@H]3CO)O[C@H]2CO)[C@H](O)[C@@H](O)[C@@H]1N[C@H]1C=C(CO)[C@@H](O[C@H]2O[C@H](CO)[C@H](O[C@H]3O[C@H](C)[C@@H](N[C@H]4C=C(CO)[C@@H](O)[C@H](O)[C@H]4O)[C@H](O)[C@H]3O)[C@H](O)[C@H]2O)[C@H](O)[C@H]1O (stereo in doubt) [Trestatin A]
- Antimicrobial spectrum [1]: > 100 µg/mL
- Acute toxicity [2]: not observed
- pKa' [3]: 5.0
- Antimicrobial spectrum [4]: > 100 µg/mL
- Antimicrobial spectrum [5]: > 100 µg/mL
- Antimicrobial spectrum [6]: > 100 µg/mL
- Antimicrobial spectrum [7]: > 100 µg/mL
- Antimicrobial spectrum [8]: > 100 µg/mL
- Antimicrobial spectrum [9]: > 100 µg/mL
- Antimicrobial spectrum [10]: > 100 µg/mL
- Antimicrobial spectrum [11]: > 100 µg/mL
- Antimicrobial spectrum [12]: > 100 µg/mL
- Antimicrobial spectrum [13]: > 100 µg/mL
- Antimicrobial spectrum [14]: > 100 µg/mL
- Antimicrobial spectrum [15]: > 100 µg/mL
- Antimicrobial spectrum [16]: > 100 µg/mL
- Antimicrobial spectrum [17]: > 100 µg/mL
- Antimicrobial spectrum [18]: > 100 µg/mL
- Antimicrobial spectrum [19]: > 100 µg/mL
- Antimicrobial spectrum [20]: > 100 µg/mL
- Antimicrobial spectrum [21]: > 100 µg/mL
- Antimicrobial spectrum [22]: > 100 µg/mL
- Antimicrobial spectrum [23]: > 100 µg/mL
- ED20, inhibition of hyperglycemia induced by cooked rice starch [24]: 1.0 mg/kg
- Antimicrobial spectrum [25]: > 100 µg/mL
- Plasma glucose, sucrose - load [33]: 84% of carbohydrate primed controls
- ED20, inhibition of hyperglycemia induced by cooked rice starch [26]: 1.1 mg/kg
- Antimicrobial spectrum [27]: > 100 µg/mL
- Antimicrobial spectrum [28]: > 100 µg/mL
- Inhibitory activities [29]: 7.1 × 10^7 IU/g
- Plasma glucose, starch - load ([34]; dose/kg 0.3 mg): 68% of carbohydrate primed controls
- Plasma insulin, starch - load ([34]; dose/kg 0.3 mg): 66% of carbohydrate primed controls
- Plasma glucose, starch - load ([34]; dose/kg 1.0 mg): 56% of carbohydrate primed controls
- Plasma insulin, starch - load ([34]; dose/kg 1.0 mg): 42% of carbohydrate primed controls
- Plasma glucose, starch - load ([34]; dose/kg 3.0 mg): 55% of carbohydrate primed controls
- Plasma insulin, starch - load ([34]; dose/kg 3.0 mg): 42% of carbohydrate primed controls
- Antimicrobial spectrum [30]: > 100 µg/mL
- Solubility in acetone [31]: slightly soluble
- Solubility in chloroform [31]: insoluble
- Solubility in dimethylsulfoxide [31]: soluble
- Solubility in ethanol [31]: slightly soluble
- Solubility in ethyl acetate [31]: insoluble
- Solubility in water [31]: easily soluble
- Antimicrobial spectrum [32]: > 100 µg/mL

Reference: patent US4273765A, “Amino sugar derivatives containing trehalose” (Hoffmann-La Roche Inc., priority 1978, dated 1981)
